Measured values from US20220088146A1, “Melanocortin Receptor-Specific Peptide Formulations and Methods for Gastrointestinal Tract-Specific Delivery” (Palatin Technologies, Inc., priority 2018, published 2022).
Ends that are not written are not given here.

How the values were obtained:
[1] = test system: MC1r; test: Functional selectivity evaluation at Cerep, MC1r; assay type: cell-based
[2] = target: T1, MC2r (Homo sapiens, UniProt Q01718); test: Functional selectivity evaluation at Cerep, MC2r; assay type: cell-based
T1 construct: Cerep
Source text: The results were as follows:

[3] = target: T2, MC3r (Homo sapiens, UniProt P41968); test: Functional selectivity evaluation at Cerep, MC3r; assay type: cell-based
T2 construct: Cerep

[4] = target: T3, MC5r (Homo sapiens, UniProt P33032); test: Functional selectivity evaluation at Cerep, MC5r; assay type: cell-based
T3 construct: Cerep

[5] = test system: TNF-α; test: Lipopolysaccharide-induced TNF-α inhibition in vitro; assay type: cell-based
[6] = test system: 72 in vitro assays; test: Eurofins lead profile; conditions: 10 μM
[7] = test system: DNBS-induced bowel inflammation; test: Cannulated rat DNBS model of bowel inflammation, intracolonic dosing; assay type: in vivo; conditions: 0.5 μg and 5.0 μg intracolonic, Wistar rats
Experimental: The rats were implanted with a catheter in the proximal part of the ascending colon, which exited out the nape of the neck for dosing access. […] Non-cannulated control rats were administered sulfasalazine (positive controls) and vehicle (untreated controls).

[8] = Plasma assay for systemic peptide in DNBS colitis rats after oral capsules; assay type: in vivo, rat; conditions: oral capsules of Lot 41
[9] = Human clinical microdose study of C14-labeled oral formulation; assay type: in vivo; conditions: single oral microdose of C14-labeled Example 9.3 formulated as for Lot 41
Source text: A combination of Eudragit® L100-55, Eudragit® S-100 and Eudragit® FS30D polymethacrylates were selected and utilized at a weight ratio of 23.25:23.0:12.5, where the weight of L100-55 and S-100 was dry weight of solid material, and the weight of FS30D was of a commercially prepared aqueous formulation wherein the 12.5 grams of liquid FS30D contained 3.75 grams polymer, for a weight ratio of polymer of 23.25:23:3.75. The combination of polymethacrylates were placed in acetone and stirred for an extended period. […] The dried material was retrieved, diluted with additional dried polymetacrylate mixture not containing peptide to obtain the desired target concentration in a predetermined quantity of material, and milled to the desired diameter and sieved. The sieved material was placed within a gelatin size 2 capsule to provide an oral formulation.
The oral formulation was administered in a microdose level to 24 subjects, divided into six cohorts of 4 subjects each.
The only radioactive material identified in urine was the C14 labelled phenylalanine.

[10] = Dissolution of Eudragit microparticles, USP Apparatus 2; assay type: physicochemical; conditions: Lot 40 microparticles (FIG. 8)
Experimental: About 1 g of the microparticles was accurately weighed and suspended in the acid at 37° C. for 2 hours. The pH of the medium was then sequentially adjusted to pH 5.5 for 1 hour, pH 6.8 for another hour and finally to pH 7.4 for 7 hours.

[11] = target: T4, MC4r (Homo sapiens, UniProt P32245); test: cell-based
[12] = target: T4, MC4r; test: Competitive inhibition binding assay using [I125]-NDP-α-MSH, hMC4r membranes; design: expressed in transfected cells; host or cells: HEK-293; conditions: human recombinant MC4r, HEK-293 membranes, read-out: MC-4 Ki (average)
Experimental: (§1) A competitive inhibition binding assay was performed using membrane homogenates prepared from HEK-293 cells that express recombinant hMC1r or hMC4r (in each instance where the h prefix refers to human), or alternatively membrane homogenates from B16-F10 mouse melanoma cells containing endogenous murine MC1r. In the examples that follow, all MC1r and MC4r values are for human recombinant receptors, unless otherwise noted. Assays were performed in 96 well polypropylene round-bottom plates (VWR catalog number 12777-030). […] After incubation for 90 minutes at 37° C., the assay mixture was filtered onto GF/B Unifilter plates (Perkin-Elmer catalog number 6005177) and washed with 3 mL of ice-cold buffer per well. Filters were air dried and 35 μL of scintillation cocktail added to each well. Plates were counted in a Microbeta counter for bound radioactivity. […] Each assay was conducted in duplicate and the actual mean values are described, with results less than 0% reported as 0%. Ki values for peptides of the present invention were determined using Graph-Pad Prism® curve-fitting software.
(§2) All results are expressed in nM except for Emax values, which are percentage values. Peptides with the captioned primary sequence were synthesized and purified as described in Section 7 above, with the resulting peptide having the structure depicted.

[13] = target: T5, hMC1r (Homo sapiens, UniProt Q01726); test: Assay for agonist activity: cAMP accumulation in HBL melanoma cells; assay type: cell-based; design: endogenous in cells; host or cells: HBL human melanoma cells; conditions: for Emax: HBL, compared to NDP-α-MSH as 100%, read-out: MC-1 Emax (average; cAMP HBL); for EC50: read-out: MC-1 EC50 (average; cAMP HBL)
Experimental: 8.2 Assay for Agonist Activity.
Confluent HBL cells that express hMC1r or HEK-293 cells that express recombinant hMC4r were detached from culture plates by incubation in enzyme-free cell dissociation buffer. Dispersed cells were suspended in Earle's Balanced Salt Solution containing 10 mM HEPES (pH 7.5), 1 mM MgCl2, 1 mM glutamine, 0.5% albumin and 0.3 mM 3-isobutyl-1-methyl-xanthine (IBMX), a phosphodiesterase inhibitor. The cells were plated in 96-well plates at a density of 0.4×10^5 cells per well for HBL cells and 0.5×10^5 cells per well for HEK-293 cells and pre-incubated for 10 minutes. Cells were exposed for 15 minutes at 37° C. to peptides of the present invention dissolved in DMSO (final DMSO concentration of 1%) at a concentration range of 0.05-5000 nM in a total assay volume of 200 μL. […] Data analysis was performed by nonlinear regression analysis with Graph-Pad Prism® software.
as §2

[14] = target: T5, hMC1r; test: Competitive inhibition binding assay using [I125]-NDP-α-MSH, hMC1r membranes; conditions: human recombinant MC1r, HEK-293 membranes, read-out: MC-1 Ki (average)
Experimental: as §1, §2

T5 sequence (Q01726 whole entry): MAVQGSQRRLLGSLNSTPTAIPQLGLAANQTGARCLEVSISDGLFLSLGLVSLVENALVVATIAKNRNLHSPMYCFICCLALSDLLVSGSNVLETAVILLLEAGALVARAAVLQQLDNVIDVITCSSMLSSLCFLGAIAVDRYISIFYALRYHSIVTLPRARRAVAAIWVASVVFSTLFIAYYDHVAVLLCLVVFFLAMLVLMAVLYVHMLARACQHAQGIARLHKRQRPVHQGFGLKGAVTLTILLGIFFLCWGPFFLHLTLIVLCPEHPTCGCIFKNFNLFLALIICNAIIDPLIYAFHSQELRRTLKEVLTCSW
T4 sequence (P32245 whole entry): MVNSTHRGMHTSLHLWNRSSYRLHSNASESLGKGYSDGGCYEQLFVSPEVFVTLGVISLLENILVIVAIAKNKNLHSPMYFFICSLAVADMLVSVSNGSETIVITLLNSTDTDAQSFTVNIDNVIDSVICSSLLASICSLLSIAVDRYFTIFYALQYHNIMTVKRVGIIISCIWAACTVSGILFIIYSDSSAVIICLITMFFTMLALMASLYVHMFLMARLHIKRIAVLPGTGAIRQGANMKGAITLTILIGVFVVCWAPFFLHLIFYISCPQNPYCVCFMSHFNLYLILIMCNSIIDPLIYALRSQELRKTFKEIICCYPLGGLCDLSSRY
T1 sequence (Q01718 whole entry, species assumed): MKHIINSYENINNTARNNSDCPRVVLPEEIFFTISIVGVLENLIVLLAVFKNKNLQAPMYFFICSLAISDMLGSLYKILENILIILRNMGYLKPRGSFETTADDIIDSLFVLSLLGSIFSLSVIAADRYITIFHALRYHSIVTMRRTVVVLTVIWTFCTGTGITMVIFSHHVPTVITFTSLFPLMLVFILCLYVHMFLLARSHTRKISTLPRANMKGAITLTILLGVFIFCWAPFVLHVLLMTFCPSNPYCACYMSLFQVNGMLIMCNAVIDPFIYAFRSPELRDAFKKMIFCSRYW
T1 sequence (Q8TCY5 whole entry partner, species assumed): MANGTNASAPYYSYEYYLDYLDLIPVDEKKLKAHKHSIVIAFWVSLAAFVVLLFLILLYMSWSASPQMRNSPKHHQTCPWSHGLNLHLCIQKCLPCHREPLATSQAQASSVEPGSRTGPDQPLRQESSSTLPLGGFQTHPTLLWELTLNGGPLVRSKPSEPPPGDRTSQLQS
T3 sequence (P33032 whole entry, species assumed): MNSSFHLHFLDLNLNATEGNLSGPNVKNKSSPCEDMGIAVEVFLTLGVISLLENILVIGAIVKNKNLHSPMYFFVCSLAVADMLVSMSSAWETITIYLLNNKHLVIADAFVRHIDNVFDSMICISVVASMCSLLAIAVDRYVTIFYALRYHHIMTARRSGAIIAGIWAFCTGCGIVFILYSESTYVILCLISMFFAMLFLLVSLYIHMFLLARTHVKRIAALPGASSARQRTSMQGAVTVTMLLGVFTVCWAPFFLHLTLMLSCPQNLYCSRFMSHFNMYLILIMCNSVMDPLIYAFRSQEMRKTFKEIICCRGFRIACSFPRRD
T2 sequence (P41968 whole entry, species assumed): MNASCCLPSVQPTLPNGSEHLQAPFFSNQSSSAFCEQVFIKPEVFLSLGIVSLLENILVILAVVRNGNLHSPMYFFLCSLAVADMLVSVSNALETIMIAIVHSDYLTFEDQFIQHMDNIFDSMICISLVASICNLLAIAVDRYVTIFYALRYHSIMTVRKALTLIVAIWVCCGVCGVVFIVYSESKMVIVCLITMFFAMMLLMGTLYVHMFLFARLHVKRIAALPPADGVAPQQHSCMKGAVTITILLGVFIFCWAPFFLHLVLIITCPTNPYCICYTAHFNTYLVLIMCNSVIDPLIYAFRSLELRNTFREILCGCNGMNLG

Compound	Ki [12]	Emax [13]	Ki [14]	EC50 [13]	further results
CCCC[C@H](NC(C)=O)C(=O)N[C@H]1CCC(=O)NC[C@@H](C(=O)N[C@@H](Cc2c[nH]c3ccccc23)C(N)=O)NC(=O)[C@H](CCCNC(=N)N)NC(=O)[C@@H](Cc2ccccc2)NC(=O)[C@H](Cc2c[nH]cn2)NC1=O [Example 9.3, Ac-Nle-cyclo(Glu-His-D-Phe-Arg-Dap)-Trp-NH2]	510 nM	91%	–	–	EC50 [1]: 0.57 nM; EC50 [2]: > 10000 nM; EC50 [3]: > 10000 nM; EC50 [4]: > 10000 nM; lipopolysaccharide-induced TNF-α inhibition [5]: comparable to α-MSH and ACTH; activity in 72 in vitro assays (Eurofins lead profile) [6]: no activity was detected; inflammation score ([7]; FIG. 1A): as active as sulfasalazine; colon weight ([7]; FIG. 1B): as active as sulfasalazine; systemic peptide in plasma [8]: did not detect any; intact peptide in plasma or urine [9]: no intact peptide; peptide levels in fecal samples [9]: significant and approximately equal levels; peptide release from microparticles ([10]; buffer pH 4.5-5.5): no release; peptide release from microparticles ([10]; buffer pH adjusted over time 4.5-7.5): approximately total release; EC50 [11]: 510 nM
CCCC[C@H](NC(C)=O)C(=O)N[C@H]1CCC(=O)NC[C@@H](C(=O)N[C@@H](Cc2c[nH]c3ccccc23)C(C)=O)NC(=O)[C@H](CCCNC(=N)N)NC(=O)[C@@H](Cc2ccccc2)NC(=O)[C@H](Cc2c[nH]cn2)NC1=O [Example 9.26, Ac-Nle-cyclo(Glu-His-D-Phe-Arg-Dap)-Trp-OH]	4700 nM	81%	1 nM	0.107 nM	intact peptide in plasma or urine [9]: no intact peptide; peptide levels in fecal samples [9]: significant and approximately equal levels
CCCC[C@H](NC(C)=O)C(=O)N[C@H]1CCC(=O)NCCC(C(=O)N[C@@H](Cc2c[nH]c3ccccc23)C(N)=O)NC(=O)[C@H](C)NC(=O)[C@@H](Cc2ccccc2)NC(=O)[C@H](Cc2c[nH]cn2)NC1=O (stereo partly drawn) [Example 9.35, Ac-Nle-cyclo(Glu-His-D-Phe-Ala-Dab)-Trp-NH2]	–	72%	0.8 nM	0.115 nM	–
CCCCC(NC(C)=O)C(=O)N[C@H]1CCC(=O)NCC[C@@H](C(N)=O)NC(=O)[C@H](CCCNC(=N)N)NC(=O)[C@@H](Cc2ccccc2)NC(=O)[C@H](Cc2c[nH]cn2)NC1=O (stereo partly drawn) [Example 9.44, Ac-Nle-cyclo(Glu-His-D-Phe-Arg-Dab)-NH2]	–	85%	7 nM	0.32 nM	–
CCCCC(NC(C)=O)C(=O)N[C@H]1CCC(=O)NCC[C@@H](C(=O)N[C@@H](CCCCN)C(N)=O)NC(=O)[C@H](CCCNC(=N)N)NC(=O)[C@@H](Cc2ccccc2)NC(=O)[C@H](Cc2c[nH]cn2)NC1=O (stereo partly drawn) [Example 9.52, Ac-Nle-cyclo(Glu-His-D-Phe-Arg-Dab)-Lys-NH2]	7370 nM	91%	2 nM	0.175 nM	–
SYSMEHFRWGKPVGKKRRPVKVYPNGAEDESAEAFPLEF [ACTH, reference compound]	–	–	–	–	EC50 [1]: 980 nM

Further lines, with some results ahead:

Ki [12]	Emax [13]	Ki [14]	EC50 [13]	Compound	further results
860 nM	85%	0.065 nM	0.016 nM	CCCC[C@H](NC(C)=O)C(=O)N[C@H]1CNC(=O)CCC(=O)NCC[C@@H](C(=O)N[C@@H](Cc2c[nH]c3ccccc23)C(N)=O)NC(=O)[C@H](CCCNC(=N)N)NC(=O)[C@@H](Cc2ccccc2)NC(=O)[C@H](Cc2c[nH]cn2)NC1=O [Example 9.43, Ac-Nle-cyclo(Dap-His-D-Phe-Arg-Dab)-Trp-NH2]	–
–	73%	645 nM	44 nM	CCCCC(NC(C)=O)C(=O)N[C@H]1CCC(=O)NCC[C@@H](C(N)=O)NC(=O)[C@H](C)NC(=O)[C@@H](Cc2ccccc2)NC(=O)[C@H](Cc2c[nH]cn2)NC1=O (stereo partly drawn) [Example 9.45, Ac-Nle-cyclo(Glu-His-D-Phe-Ala-Dab)-NH2]	–
